Read-outs that look alike come from different tables or passages of the source.
What was measured:
[1] = tested on: MOLM-13 cells; assay: Cell viability assay (CellTiter-Glo) in MOLM-13 cells, alone or with gilteritinib; assay type: cell-based; settings: Homo sapiens, MOLM-13, 72 h, MOLM-13 cells, three days, CellTiter-Glo
[2] = tested on: MV4;11 cells; assay: Cell viability assay (CellTiter-Glo) in MV4;11 cells, alone or with gilteritinib; assay type: cell-based; settings: Homo sapiens, MV4-11, 72 h, MV4;11 cells, three days, CellTiter-Glo, read-out: MV4
[3] = compound alone (without gilteritinib), read-out: MOLM-13 IC50
[4] = with gilteritinib 20 nM, read-out: MOLM-13 IC50 gilteritinib
[5] = compound alone (without gilteritinib), 11 IC50
[6] = with gilteritinib 10 nM, 11 IC50 gilteritinib

Q: How did the IC50 [1, 3] turn out when `COc1cccnc1-c1cn([C@H]2C[C@H](CNc3ccc4c(c3)C(=O)N(C3CCC(=O)NC3=O)C4=O)C2)nc1C1CC1` (stereo partly drawn) [GS-262, 5-(((trans-3-(3-Cyclopropyl-4-(3-methoxypyridin-2-yl)-1H-pyrazol-1-yl)cyclobutyl)methyl)amino)-2-(2,6-dioxopiperidin-3-yl)isoindoline-1,3-dione] was run?
A: < 0.01 µM

Q: What about the IC50 [1, 4] of the same compound?
A: < 0.01 µM

Q: And the IC50 [2, 5]?
A: < 0.01 µM

Q: What about the IC50 [2, 6] of the same compound?
A: < 0.01 µM

Q: Which results are given for `CNc1cccc(-c2cn([C@H]3C[C@H](CNc4ccc5c(c4)C(=O)N(C4CCC(=O)NC4=O)C5=O)C3)nc2C2CC2)n1` (stereo partly drawn) [GS-263, 5-(((trans-3-(3-Cyclopropyl-4-(6-(methylamino)pyridin-2-yl)-1H-pyrazol-1-yl)cyclobutyl)methyl)amino)-2-(2,6-dioxopiperidin-3-yl)isoindoline-1,3-dione]?
A: IC50 [1, 3]: 0.1 to 1 µM; IC50 [1, 4]: 0.01 to 0.1 µM; IC50 [2, 5]: 0.1 to 1 µM; IC50 [2, 6]: 0.01 to 0.1 µM

Q: Which IC50 [1, 3] does the source give for `O=C1CCC(N2C(=O)c3ccc(NC[C@H]4C[C@H](n5cc(-c6cc(Cl)ccn6)c(C6CC6)n5)C4)cc3C2=O)C(=O)N1` (stereo partly drawn) [GS-264, 5-(((trans-3-(4-(4-Chloropyridin-2-yl)-3-cyclopropyl-1H-pyrazol-1-yl)cyclobutyl)methyl)amino)-2-(2,6-dioxopiperidin-3-yl)isoindoline-1,3-dione] here?
A: 0.01 to 0.1 µM

Q: And the IC50 [1, 4]?
A: < 0.01 µM

Q: And the IC50 [2, 5]?
A: 0.01 to 0.1 µM

Q: What about the IC50 [2, 6] of the same compound?
A: < 0.01 µM

Q: Which IC50 [1, 3] does the source give for `O=C1CCC(N2C(=O)c3ccc(NC[C@H]4C[C@H](n5cc(-c6ccncc6)c(C6CC6)n5)C4)cc3C2=O)C(=O)N1` (stereo partly drawn) [GS-265, 5-(((trans-3-(3-Cyclopropyl-4-(pyridin-4-yl)-1H-pyrazol-1-yl)cyclobutyl)methyl)amino)-2-(2,6-dioxopiperidin-3-yl)isoindoline-1,3-dione] here?
A: > 1 µM

Q: What about the IC50 [1, 4] of the same compound?
A: 0.1 to 1 µM

Q: And the IC50 [2, 5]?
A: > 1 µM

Q: What about the IC50 [2, 6] of the same compound?
A: 0.1 to 1 µM

Q: How did the IC50 [1, 3] turn out when `O=C1CCC(N2C(=O)c3ccc(NC[C@H]4C[C@H](n5cc(-c6cnc7c(N8CCOCC8)cccc7n6)c(C6CC6)n5)C4)cc3C2=O)C(=O)N1` (stereo partly drawn) [GS-266, 5-(((trans-3-(3-Cyclopropyl-4-(5-morpholinoquinoxalin-2-yl)-1H-pyrazol-1-yl)cyclobutyl)methyl)amino)-2-(2,6-dioxopiperidin-3-yl)isoindoline-1,3-dione] was run?
A: < 0.01 µM

Q: What about the IC50 [1, 4] of the same compound?
A: < 0.01 µM

Q: And the IC50 [2, 5]?
A: < 0.01 µM

Q: What about the IC50 [2, 6] of the same compound?
A: < 0.01 µM

Q: `CN1CCN(c2cccc3nc(-c4cn([C@H]5C[C@H](CNc6ccc7c(c6)C(=O)N(C6CCC(=O)NC6=O)C7=O)C5)nc4C4CC4)cnc23)CC1` (stereo partly drawn) [GS-267, 5-(((trans-3-(3-Cyclopropyl-4-(5-(4-methylpiperazin-1-yl)quinoxalin-2-yl)-1H-pyrazol-1-yl)cyclobutyl)methyl)amino)-2-(2,6-dioxopiperidin-3-yl)isoindoline-1,3-dione] was tested. Which IC50 [1, 3] did it give?
A: < 0.01 µM

Q: What about the IC50 [1, 4] of the same compound?
A: < 0.01 µM

Q: And the IC50 [2, 5]?
A: < 0.01 µM

Q: And the IC50 [2, 6]?
A: < 0.01 µM

Q: What does the source list for `O=C1CCC(N2C(=O)c3ccc(NC[C@H]4C[C@H](n5cc(-c6cccnc6)c(C6CC6)n5)C4)cc3C2=O)C(=O)N1` (stereo partly drawn) [GS-268, 5-(((trans-3-(3-Cyclopropyl-4-(pyridin-3-yl)-1H-pyrazol-1-yl)cyclobutyl)methyl)amino)-2-(2,6-dioxopiperidin-3-yl)isoindoline-1,3-dione]?
A: IC50 [1, 3]: 0.1 to 1 µM; IC50 [1, 4]: 0.01 to 0.1 µM; IC50 [2, 5]: 0.1 to 1 µM; IC50 [2, 6]: 0.01 to 0.1 µM

Q: Which IC50 [1, 3] does the source give for `O=C1CCC(N2C(=O)c3ccc(NC[C@H]4C[C@H](n5cc(-c6cccc(NC7CC(O)C7)n6)c(C6CC6)n5)C4)cc3C2=O)C(=O)N1` (stereo partly drawn) [GS-269, 5-(((trans-3-(3-Cyclopropyl-4-(6-((3-hydroxycyclobutyl)amino)pyridin-2-yl)-1H-pyrazol-1-yl)cyclobutyl)methyl)amino)-2-(2,6-dioxopiperidin-3-yl)isoindoline-1,3-dione] here?
A: > 1 µM

Q: And the IC50 [1, 4]?
A: > 1 µM

Q: What about the IC50 [2, 5] of the same compound?
A: > 1 µM

Q: What about the IC50 [2, 6] of the same compound?
A: 0.1 to 1 µM

Q: Which IC50 [1, 3] does the source give for `O=C1CCC(N2C(=O)c3ccc(NC[C@H]4C[C@H](n5cc(-c6cccc(=O)[nH]6)c(C6CC6)n5)C4)cc3C2=O)C(=O)N1` (stereo partly drawn) [GS-270, 5-(((trans-3-(3-Cyclopropyl-4-(6-oxo-1,6-dihydropyridin-2-yl)-1H-pyrazol-1-yl)cyclobutyl)methyl)amino)-2-(2,6-dioxopiperidin-3-yl)isoindoline-1,3-dione] here?
A: > 1 µM

Q: What about the IC50 [1, 4] of the same compound?
A: > 1 µM

Q: What about the IC50 [2, 5] of the same compound?
A: > 1 µM

Q: And the IC50 [2, 6]?
A: > 1 µM

Q: Which IC50 [1, 3] does the source give for `O=C(Cn1cc(-c2cnc3ccccc3n2)c(C2CC2)n1)NCc1ccc2c(c1)C(=O)N(C1CCC(=O)NC1=O)C2=O` (stereo not shown) [GS-271, 2-(3-Cyclopropyl-4-(quinoxalin-2-yl)-1H-pyrazol-1-yl)-N-((2-(2,6-dioxopiperidin-3-yl)-1,3-dioxoisoindolin-5-yl)methyl)acetamide] here?
A: 0.1 to 1 µM

Q: What about the IC50 [1, 4] of the same compound?
A: 0.01 to 0.1 µM

Q: What about the IC50 [2, 5] of the same compound?
A: 0.01 to 0.1 µM

Q: What about the IC50 [2, 6] of the same compound?
A: 0.01 to 0.1 µM

Q: For `O=C1CCC(N2C(=O)c3ccc(NC[C@H]4C[C@H](n5cc(-c6ncccc6Cl)c(C6CC6)n5)C4)cc3C2=O)C(=O)N1` (stereo partly drawn) [GS-272, 5-(((trans-3-(4-(3-Chloropyridin-2-yl)-3-cyclopropyl-1H-pyrazol-1-yl)cyclobutyl)methyl)amino)-2-(2,6-dioxopiperidin-3-yl)isoindoline-1,3-dione], which IC50 [1, 3] is on record?
A: 0.01 to 0.1 µM

Q: And the IC50 [1, 4]?
A: < 0.01 µM

Q: What about the IC50 [2, 5] of the same compound?
A: < 0.01 µM

Q: What about the IC50 [2, 6] of the same compound?
A: < 0.01 µM

Q: What does the source list for `Nc1cccc(-c2cn([C@H]3C[C@H](CNc4ccc5c(c4)C(=O)N(C4CCC(=O)NC4=O)C5=O)C3)nc2C2CC2)n1` (stereo partly drawn) [GS-273, 5-(((trans-3-(4-(6-aminopyridin-2-yl)-3-cyclopropyl-1H-pyrazol-1-yl)cyclobutyl)methyl)amino)-2-(2,6-dioxopiperidin-3-yl)isoindoline-1,3-dione]?
A: IC50 [1, 3]: > 1 µM; IC50 [1, 4]: 0.1 to 1 µM; IC50 [2, 5]: 0.1 to 1 µM; IC50 [2, 6]: 0.01 to 0.1 µM

Q: How did the IC50 [1, 3] turn out when `O=C1CCC(N2C(=O)c3ccc(NC[C@H]4C[C@H](n5cc(-c6cccc(NC7CNC7)n6)c(C6CC6)n5)C4)cc3C2=O)C(=O)N1` (stereo partly drawn) [GS-274, 5-(((trans-3-(4-(6-(Azetidin-3-ylamino)pyridin-2-yl)-3-cyclopropyl-1H-pyrazol-1-yl)cyclobutyl)methyl)amino)-2-(2,6-dioxopiperidin-3-yl)isoindoline-1,3-dione] was run?
A: > 1 µM

Q: What about the IC50 [1, 4] of the same compound?
A: > 1 µM

Q: What about the IC50 [2, 5] of the same compound?
A: > 1 µM

Q: And the IC50 [2, 6]?
A: > 1 µM

Q: How did the IC50 [1, 3] turn out when `COc1ccc(-c2cn([C@H]3C[C@H](CNc4ccc5c(c4)C(=O)N(C4CCC(=O)NC4=O)C5=O)C3)nc2C2CC2)nc1` (stereo partly drawn) [GS-275, 5-(((trans-3-(3-Cyclopropyl-4-(5-methoxypyridin-2-yl)-1H-pyrazol-1-yl)cyclobutyl)methyl)amino)-2-(2,6-dioxopiperidin-3-yl)isoindoline-1,3-dione] was run?
A: 0.1 to 1 µM

Q: And the IC50 [1, 4]?
A: 0.01 to 0.1 µM

Q: What about the IC50 [2, 5] of the same compound?
A: 0.01 to 0.1 µM

Q: What about the IC50 [2, 6] of the same compound?
A: 0.01 to 0.1 µM

Q: For `CN(C)c1ccc(-c2cn([C@H]3C[C@H](CNc4ccc5c(c4)C(=O)N(C4CCC(=O)NC4=O)C5=O)C3)nc2C2CC2)nc1` (stereo partly drawn) [GS-276, 5-(((trans-3-(3-Cyclopropyl-4-(5-(dimethylamino)pyridin-2-yl)-1H-pyrazol-1-yl)cyclobutyl)methyl)amino)-2-(2,6-dioxopiperidin-3-yl)isoindoline-1,3-dione], which IC50 [1, 3] is on record?
A: 0.1 to 1 µM

Q: What about the IC50 [1, 4] of the same compound?
A: 0.01 to 0.1 µM

Q: What about the IC50 [2, 5] of the same compound?
A: 0.01 to 0.1 µM

Q: And the IC50 [2, 6]?
A: < 0.01 µM

Q: For `O=C1CCC(N2C(=O)c3ccc(NC[C@H]4C[C@H](n5cc(-c6ncccc6C(F)(F)F)c(C6CC6)n5)C4)cc3C2=O)C(=O)N1` (stereo partly drawn) [GS-277, 5-(((trans-3-(3-Cyclopropyl-4-(3-(trifluoromethyl)pyridin-2-yl)-1H-pyrazol-1-yl)cyclobutyl)methyl)amino)-2-(2,6-dioxopiperidin-3-yl)isoindoline-1,3-dione], which IC50 [1, 3] is on record?
A: < 0.01 µM

Q: What about the IC50 [1, 4] of the same compound?
A: < 0.01 µM

Q: What about the IC50 [2, 5] of the same compound?
A: < 0.01 µM

Q: What about the IC50 [2, 6] of the same compound?
A: < 0.01 µM

From US20240050428A1 (Cullgen (Shanghai), Inc., priority 2020, published 2024)
